Assay [1] deals with T1, ADGRF1 (Homo sapiens, UniProt Q5T601, L769A).
T1 construct: Flag (N); expressed in transfected cells; host or cells: HEK293F
T1 sequence (Q5T601 20-910 L769A): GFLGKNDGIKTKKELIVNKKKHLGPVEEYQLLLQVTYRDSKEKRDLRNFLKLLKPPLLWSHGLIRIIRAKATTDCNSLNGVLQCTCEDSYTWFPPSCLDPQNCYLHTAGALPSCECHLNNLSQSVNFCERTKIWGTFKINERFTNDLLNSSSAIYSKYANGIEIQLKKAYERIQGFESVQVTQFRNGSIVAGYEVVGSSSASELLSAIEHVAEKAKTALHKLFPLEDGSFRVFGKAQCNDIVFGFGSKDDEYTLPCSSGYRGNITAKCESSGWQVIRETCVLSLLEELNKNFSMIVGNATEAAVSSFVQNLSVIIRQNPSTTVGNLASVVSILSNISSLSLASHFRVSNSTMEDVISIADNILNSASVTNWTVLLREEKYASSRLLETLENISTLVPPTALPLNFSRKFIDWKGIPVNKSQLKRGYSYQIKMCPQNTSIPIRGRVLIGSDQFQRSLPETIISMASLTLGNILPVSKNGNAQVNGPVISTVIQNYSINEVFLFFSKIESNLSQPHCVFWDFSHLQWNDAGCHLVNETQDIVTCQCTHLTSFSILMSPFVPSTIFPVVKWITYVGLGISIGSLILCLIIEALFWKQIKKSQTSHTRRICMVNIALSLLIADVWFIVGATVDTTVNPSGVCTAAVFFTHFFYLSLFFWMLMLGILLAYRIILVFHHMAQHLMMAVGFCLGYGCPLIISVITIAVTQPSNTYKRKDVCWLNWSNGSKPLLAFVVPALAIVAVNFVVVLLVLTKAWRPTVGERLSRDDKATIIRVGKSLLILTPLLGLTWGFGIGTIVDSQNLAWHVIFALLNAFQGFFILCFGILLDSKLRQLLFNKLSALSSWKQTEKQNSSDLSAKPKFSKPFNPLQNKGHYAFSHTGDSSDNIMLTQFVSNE
The assay is described as follows: BRET assay using TRUPATH biosensors, Gs activation of ADGRF1. It counts as cell-based. Here is the method:
(§1) To study the synthetic stalk peptide-induced G protein activation of ADGRD1 and ADGRF1, a BRET assay using TRUPATH biosensors was conducted to measure the proximal interaction between RLuc8 fused to the Gα subunit and GFP2 fused to the Gγ subunit. The TRUPATH suite of biosensors was obtained from Addgene (Addgene kit no. 1000000163) as a gift from B. Roth, including GαsS-RLuc8, Gαi1-RLuc8, Gβ3 and Gγ9-GFP2 as previously described.
(§2) The wild-type or mutant ADGRD1 and ADGRF1 were transiently co-transfected with plasmids encoding Gα-RLuc8 (GαsS-RLuc8 for Gs activation assay; Gαi1-RLuc8 for Gi activation assay), Gβ3 and Gγ9-GFP2 at a ratio of 2:1:1:1 (receptor plasmid, 800 ng; G protein subunit plasmids, 400 ng for each) in 2 ml HEK293F cells at a density of 1.2 × 10^6 cells per ml. Cell cultivation and receptor surface expression measurement were performed as described above. The cells were plated into 96-well white plates (40,000 cells per well) in 60 μl of assay buffer and incubated at 37 °C for 30 min. Then 10 μl of freshly prepared 50 μM coelenterazine 400a (Nanolight Technologies) was added. […] The cells were stimulated with 30 μl of synthetic stalk peptide at different concentrations and the BRET signals were monitored continuously five times. The last measurements were used in data analysis. The BRET ratios were calculated as the ratio of the GFP2 emission to RLuc8 emission.

For assay [2], the target named is T2, ADGRF1 (Homo sapiens, UniProt Q5T601).
T2 construct: Flag (N); expressed in transfected cells; host or cells: HEK293F
T2 sequence (Q5T601 20-910): T1 sequence (Q5T601 20-910 L769A) with A750L
The assay is described as above. It counts as cell-based. The note with it: Gs, ADGRF1 WT, n = 7. The procedure: as §1, §2

Setting [3] is: read-out: pEC50 (mean ± s.e.m.) (converted).

Substitutions are numbered along the chain they refer to. Ends that are not written are not given here.

As for TSFSILMSPFVP [pF1], the “Emax (mean ± s.e.m.)” value is on record as 73 ± 11 % of WT in assay [1] (Gs, ADGRF1 L769^5.61bA, n = 3) and 100 ± 9 % of WT in assay [2]. The EC50 is 151 nM in assay [1] (setting [3]) and 35.5 nM in assay [2] (setting [3]).

Source of the values: article PMC9046087, “Structural basis of tethered agonism of the adhesion GPCRs ADGRD1 and ADGRF1” (Nature, 2022).
